{"source": "PubChem BioAssay AID179", "about": "(DTP/NCI, 2004)", "test_system": "CEM cells HIV-1 protection, formazan growth assay", "test": "NCI AIDS Antiviral Assay", "settings": "for IC50: measured here: growth of uninfected CEM cells", "in_short": "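Human CEM cells, uninfected and HIV-1-infected, exposed to five drug concentrations; growth measured by soluble formazan assay and scored as percent protection from infection, with protecting compounds retested.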", "note": "The source made the active and inactive calls.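 How the source made its calls: active means compounds giving half or more protection of infected cells from virus-caused growth loss, again on retest; inactive means the rest.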", "data": [{"compound": "COC(=O)c1ccc(COC(=O)c2cc(C(=CCC[C@H]3CC[C@@]4(C)[C@@H](CC[C@@H]5[C@@H]4CC[C@]4(C)[C@@H](C(C)CCCC(C)C)CC[C@@H]54)C3)c3cc(Cl)c(OCc4ccc(C(=O)OC)cc4)c(C(=O)OCc4ccc(C(=O)OC)cc4)c3)cc(Cl)c2OCc2ccc(C(=O)OC)cc2)cc1", "note": "(stereo partly drawn)", "values": [{"measurement": "EC50", "result": "> 200", "unit": "µM"}, {"measurement": "IC50", "result": "> 200", "unit": "µM"}]}, {"compound": "O=c1cc(-c2ccccc2)c2cc3c(=O)ccoc3cc2o1", "values": [{"measurement": "EC50", "result": "> 3.47", "unit": "µM"}, {"measurement": "IC50", "result": "> 3.47", "unit": "µM"}]}, {"compound": "COc1ccc(CNc2nc3ccccc3nc2C(=O)O)cc1", "values": [{"measurement": "EC50", "result": "> 200", "unit": "µM"}, {"measurement": "IC50", "result": 34.7, "unit": "µM"}]}, {"compound": "CCCCCCc1nn2c(-c3ccc(C)cc3)nnc2s1", "values": [{"measurement": "EC50", "result": "> 200", "unit": "µM"}, {"measurement": "IC50", "result": "> 200", "unit": "µM"}]}, {"compound": "CC(C)(C)C[PH+](CC[PH+](CC(C)(C)C)CC(C)(C)C)CC(C)(C)C.[C-]#[O+].[C-]#[O+].[C-]#[O+].[C-]#[O+].[Mo]", "values": [{"measurement": "EC50", "result": "> 3.47", "unit": "µM"}, {"measurement": "IC50", "result": "> 3.47", "unit": "µM"}]}, {"compound": "CC1(C)C2CCC1C(=O)[C@@]1(C=CC(=O)CC1)C2", "note": "(stereo partly drawn)", "values": [{"measurement": "EC50", "result": "> 200", "unit": "µM"}, {"measurement": "IC50", "result": "> 200", "unit": "µM"}]}, {"compound": "[N-]=[N+]=NI1OC(=O)c2ccccc21", "values": [{"measurement": "EC50", "result": "> 200", "unit": "µM"}, {"measurement": "IC50", "result": 55, "unit": "µM"}]}, {"compound": "CC(C)=C[C@@H]1C[C@H](C)[C@H]2CC[C@H](C)[C@H]3C(=O)C(O)=C(C)C(=O)[C@]123", "values": [{"measurement": "EC50", "result": "> 200", "unit": "µM"}, {"measurement": "IC50", "result": 105, "unit": "µM"}]}, {"compound": "S=C1SC(c2ccc(Cl)cc2)(c2ccc(Cl)cc2)c2ccccc21", "values": [{"measurement": "EC50", "result": "> 200", "unit": "µM"}, {"measurement": "IC50", "result": 123, "unit": "µM"}]}, {"compound": "Nc1nc([O-])c2c(n1)[n+](C1OC(CO)C(O)C1O)cn2CCO", "note": "(stereo not drawn)", "values": [{"measurement": "EC50", "result": "> 759", "unit": "µM"}, {"measurement": "IC50", "result": "> 759", "unit": "µM"}]}, {"compound": "N#CCCN(C1=NN(C(=O)CC(=O)Nc2ccccc2)C(c2ccccc2)C1)c1ccccc1Cl", "note": "(stereo not drawn)", "values": [{"measurement": "EC50", "result": "> 269", "unit": "µM"}, {"measurement": "IC50", "result": "> 269", "unit": "µM"}]}, {"compound": "O=C(O)c1cccc(C(=O)c2ccccc2)c1", "values": [{"measurement": "EC50", "result": "> 200", "unit": "µM"}, {"measurement": "IC50", "result": "> 200", "unit": "µM"}]}, {"compound": "C/C(CC(=O)Nc1ccc(C)c(C)c1)=N\\N(c1ccccc1)c1ccccc1", "values": [{"measurement": "EC50", "result": "> 97.7", "unit": "µM"}, {"measurement": "IC50", "result": "> 97.7", "unit": "µM"}]}, {"compound": "COc1cccc(C2c3cc4c(cc3OC(NNS(=O)(=O)c3ccc(C)cc3)C2C)OCO4)c1O", "note": "(stereo not drawn)", "values": [{"measurement": "EC50", "result": "> 200", "unit": "µM"}, {"measurement": "IC50", "result": 10.5, "unit": "µM"}]}, {"compound": "C/C(=N/NC(=S)N(C)C)c1ccccc1O", "values": [{"measurement": "EC50", "result": "> 200", "unit": "µM"}, {"measurement": "IC50", "result": 11.7, "unit": "µM"}]}, {"compound": "CC(=O)Nc1ccc(SC#N)c2c(NC(C)=O)cccc12", "values": [{"measurement": "outcome", "result": "inactive"}]}, {"compound": "CC(=O)c1cc(C(C)=O)c(CC(=O)C(=O)Nc2cccc(C)c2C)nc1CC(=O)C(=O)Nc1cccc(C)c1C", "values": [{"measurement": "EC50", "result": "> 200", "unit": "µM"}, {"measurement": "IC50", "result": "> 200", "unit": "µM"}]}, {"compound": "NC(C/C=C/P(=O)(O)O)C(=O)O", "note": "(stereo not drawn)", "values": [{"measurement": "EC50", "result": "> 200", "unit": "µM"}, {"measurement": "IC50", "result": 155, "unit": "µM"}]}, {"compound": "c1ccc(N2CCN(c3ccccc3)C2)cc1", "values": [{"measurement": "EC50", "result": "> 200", "unit": "µM"}, {"measurement": "IC50", "result": "> 200", "unit": "µM"}]}, {"compound": "COC(=O)C1CC(=O)N(C)c2sc(C)c(C)c2C1=O", "note": "(stereo not drawn)", "values": [{"measurement": "EC50", "result": "> 282", "unit": "µM"}, {"measurement": "IC50", "result": 112, "unit": "µM"}]}, {"compound": "O=C(O)C(F)(F)C(F)(F)C(F)(F)C(F)(F)C(F)(F)C(F)(F)C(F)(F)C(F)(F)F", "values": [{"measurement": "EC50", "result": "> 200", "unit": "µM"}, {"measurement": "IC50", "result": 105, "unit": "µM"}]}, {"compound": "O=C(O)C1CC2C3CCC2C1C3=O", "note": "(stereo not drawn)", "values": [{"measurement": "EC50", "result": "> 200", "unit": "µM"}, {"measurement": "IC50", "result": "> 200", "unit": "µM"}]}, {"compound": "O=C(O)c1ccc(C2=Cc3cc(Cl)ccc3OC2)cc1", "values": [{"measurement": "EC50", "result": "> 66.1", "unit": "µM"}, {"measurement": "IC50", "result": "> 66.1", "unit": "µM"}]}, {"compound": "O=C1CCN=C(NC(=O)C(F)(F)F)N1CCc1c[nH]c2ccccc12", "values": [{"measurement": "EC50", "result": "> 200", "unit": "µM"}, {"measurement": "IC50", "result": "> 200", "unit": "µM"}]}, {"compound": "Nc1ccc(C(=O)O)c2[nH]c3ccccc3c(=O)c12", "values": [{"measurement": "outcome", "result": "inactive"}]}, {"compound": "O=c1cc(-c2ccccc2)oc2cc(OCCCOc3ccc4c(=O)cc(-c5ccccc5)oc4c3)ccc12", "values": [{"measurement": "EC50", "result": "> 3.89", "unit": "µM"}, {"measurement": "IC50", "result": "> 3.89", "unit": "µM"}]}, {"compound": "COc1ccc(/C(C#N)=C/c2cccc(OC)c2OC)cc1", "values": [{"measurement": "EC50", "result": "> 200", "unit": "µM"}, {"measurement": "IC50", "result": 28.2, "unit": "µM"}]}, {"compound": "CCOC(=O)C(C(=O)OCC)C(=S)NC1OC(COC(C)=O)C(OC(C)=O)C(OC(C)=O)C1OC(C)=O", "note": "(stereo not drawn)", "values": [{"measurement": "EC50", "result": "> 200", "unit": "µM"}, {"measurement": "IC50", "result": "> 200", "unit": "µM"}]}, {"compound": "N#C/C1=C(\\N)CCSSSC1", "values": [{"measurement": "EC50", "result": "> 457", "unit": "µM"}, {"measurement": "IC50", "result": 22.9, "unit": "µM"}]}, {"compound": "Cc1nc2ccccc2c2nnc(SCC(=O)N(Cc3ccccc3)c3ccccc3)n12", "values": [{"measurement": "EC50", "result": "> 200", "unit": "µM"}, {"measurement": "IC50", "result": "> 200", "unit": "µM"}]}, {"compound": "COC(=O)C1(Cc2ccc3c(c2)CCC3)Cc2ccc3c(c2C1)CCC3", "note": "(stereo not drawn)", "values": [{"measurement": "EC50", "result": "> 200", "unit": "µM"}, {"measurement": "IC50", "result": 37.2, "unit": "µM"}]}, {"compound": "COc1ccc(CCNc2ccc(NCCc3ccc(OC)c(OC)c3)c3c2C(=O)c2ccccc2C3=O)cc1OC", "values": [{"measurement": "outcome", "result": "inactive"}]}, {"compound": "COc1ccc(P2(=S)OCCOP(=S)(c3ccc(OC)cc3)S2)cc1", "note": "(stereo not drawn)", "values": [{"measurement": "EC50", "result": "> 117", "unit": "µM"}, {"measurement": "IC50", "result": 3.98, "unit": "µM"}]}]}
